Experimental data from patent US20230265151A1, “GIP/GLP1 CO-AGONIST COMPOUNDS” (priority 2020, published 2023).
Read-outs that look alike come from different tables or passages of the source. *1 amine or outer side, *2 acyl side, *3 side chain or, on linkers, in order; H or OH if unused. Where a SMILES comes first, the peptide text is derived from it. Side-chain parts run from the residue outwards. [ ]: non-standard residue; d: D form. The star is where a group is joined. αMePhe(2-F) = C[C@](N)(Cc1ccccc1F)C(=O)O; γGlu = O=C(O)[C@H](CCC(=O)[*:2])N[*:1]; C14 diacid = O=C(O)CCCCCCCCCCCCC(=O)*; αMeY = C[C@](N)(Cc1ccc(O)cc1)C(=O)O; αMeL = CC(C)C[C@](C)(N)C(=O)O; Orn = NCCC[C@H](N)C(=O)O; AEEA = NCCOCCOCC(=O)O; Aib = CC(C)(N)C(=O)O

Columns and labels:
Format in all cases: cell-based
hGIPR = target: T1, hGIPR (Homo sapiens, UniProt P48546); test: Functional cAMP formation (HTRF) in HEK-293 clonal cells expressing hGIPR, 0.1% bovine casein, without or with 1.0% human serum albumin; conditions: for EC50: geometric mean
T1 construct: expressed in transfected cells
T1 sequence (P48546 22-466): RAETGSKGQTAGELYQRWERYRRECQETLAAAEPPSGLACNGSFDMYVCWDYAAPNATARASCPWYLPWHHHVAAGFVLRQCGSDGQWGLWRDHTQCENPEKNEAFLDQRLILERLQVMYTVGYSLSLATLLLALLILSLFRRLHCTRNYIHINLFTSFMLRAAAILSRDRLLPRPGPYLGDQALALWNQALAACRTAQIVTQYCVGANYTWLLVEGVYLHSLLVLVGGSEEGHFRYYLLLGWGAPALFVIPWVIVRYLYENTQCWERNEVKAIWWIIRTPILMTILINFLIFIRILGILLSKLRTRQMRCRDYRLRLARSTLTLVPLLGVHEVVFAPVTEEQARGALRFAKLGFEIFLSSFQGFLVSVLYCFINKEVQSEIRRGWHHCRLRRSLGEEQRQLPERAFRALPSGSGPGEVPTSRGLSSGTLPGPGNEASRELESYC
How it was run: (§1)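 Cells were stimulated with peptide for 30 min at 37° C, then lysed in buffer carrying cAMP-d2 and anti-cAMP Eu3+-cryptate for a competitive HTRF read after at least 60 min at room temperature. The 665/620 nm ratio was converted to nM cAMP against a standard curve.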

hGCGR = target: T2, hGCGR (Homo sapiens, UniProt P47871); test: Functional cAMP formation (HTRF) in HEK-293 clonal cells expressing hGCGR, 0.1% bovine casein, without or with 1.0% human serum albumin
T2 construct: expressed in transfected cells
T2 sequence (P47871 26-477): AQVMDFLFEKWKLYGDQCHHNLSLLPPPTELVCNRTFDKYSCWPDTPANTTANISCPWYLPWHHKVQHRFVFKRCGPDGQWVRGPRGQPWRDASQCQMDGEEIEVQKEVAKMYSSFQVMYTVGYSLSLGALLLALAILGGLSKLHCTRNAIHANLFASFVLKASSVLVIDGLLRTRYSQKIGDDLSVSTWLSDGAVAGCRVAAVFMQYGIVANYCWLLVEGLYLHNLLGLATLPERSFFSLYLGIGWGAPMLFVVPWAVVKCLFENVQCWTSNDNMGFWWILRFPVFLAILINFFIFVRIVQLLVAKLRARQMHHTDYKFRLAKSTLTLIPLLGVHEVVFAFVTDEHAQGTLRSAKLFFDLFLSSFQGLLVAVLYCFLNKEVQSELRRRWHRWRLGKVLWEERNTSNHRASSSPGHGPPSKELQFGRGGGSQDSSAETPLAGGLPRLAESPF
How it was run: as §1

hGLP-1R = hGLP-1R (Homo sapiens, UniProt P43220); test: Functional cAMP formation (HTRF) in HEK-293 clonal cells expressing hGLP-1R, 0.1% bovine casein, without or with 1.0% human serum albumin; parameters: expressed in transfected cells
Sequence of hGLP-1R (P43220 24-463): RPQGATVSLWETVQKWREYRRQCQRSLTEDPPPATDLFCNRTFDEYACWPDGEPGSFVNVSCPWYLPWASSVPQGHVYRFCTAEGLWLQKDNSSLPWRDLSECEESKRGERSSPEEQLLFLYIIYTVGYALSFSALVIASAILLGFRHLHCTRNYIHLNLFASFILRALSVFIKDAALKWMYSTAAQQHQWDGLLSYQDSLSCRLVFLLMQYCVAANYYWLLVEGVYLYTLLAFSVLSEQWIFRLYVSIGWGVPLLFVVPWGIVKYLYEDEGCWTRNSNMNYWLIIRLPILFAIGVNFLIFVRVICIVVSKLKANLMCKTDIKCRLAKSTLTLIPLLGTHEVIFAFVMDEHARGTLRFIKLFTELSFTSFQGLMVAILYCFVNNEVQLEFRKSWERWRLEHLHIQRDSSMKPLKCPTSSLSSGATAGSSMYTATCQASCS
How it was run: as §1

[1] = HEK293, percent of maximal response to GIP(1-42)NH2, 37° C., 0.1% bovine casein, arithmetic mean, read-out: hGIPR Emax, % ± SEM
[2] = cAMP, incubated at 37° C., 0.1% bovine casein (no human serum albumin), read-out: hGIPR EC50, nM (SEM, n)
[3] = cAMP, incubated at 37° C., 0.1% bovine casein (no human serum albumin), geometric mean, read-out: hGCGR EC50, nM (SEM, n)

SMILES: CC[C@H](C)[C@H](NC(=O)[C@H](CCCN)NC(=O)[C@H](CC(=O)O)NC(=O)[C@H](CC(C)C)NC(=O)[C@](C)(CC(C)C)NC(=O)[C@@H](NC(=O)C(C)(C)NC(=O)[C@H](Cc1ccc(O)cc1)NC(=O)[C@H](CC(=O)O)NC(=O)[C@H](CO)NC(=O)[C@@H](NC(=O)[C@](C)(Cc1ccccc1F)NC(=O)[C@@H](NC(=O)CNC(=O)[C@H](CCC(=O)O)NC(=O)C(C)(C)NC(=O)[C@@H](N)Cc1ccc(O)cc1)[C@@H](C)O)[C@@H](C)O)[C@@H](C)CC)C(=O)N[C@@H](C)C(=O)N[C@@H](CCC(N)=O)C(=O)NC(C)(C)C(=O)N[C@@H](CCC(=O)O)C(=O)N[C@@H](Cc1ccccc1)C(=O)N[C@H](C(=O)N[C@@H](CCCCNC(=O)COCCOCCNC(=O)CC[C@H](NC(=O)COCCOCCNC(=O)COCCOCCNC(=O)CCCCCCCCCCCCC(=O)O)C(=O)O)C(=O)N[C@@](C)(Cc1ccc(O)cc1)C(=O)N[C@@H](CC(C)C)C(=O)N[C@H](C(=O)N[C@@H](CCCCNC(=O)COCCOCCNC(=O)CC[C@H](NC(=O)COCCOCCNC(=O)COCCOCCNC(=O)CCCCCCCCCCCCC(=O)O)C(=O)O)C(=O)NCC(=O)NCC(=O)N1CCC[C@H]1C(=O)N[C@@H](CO)C(=O)N[C@@H](CO)C(=O)NCC(=O)N[C@@H](C)C(=O)N1CCC[C@H]1C(=O)N1CCC[C@H]1C(=O)N1CCC[C@H]1C(=O)N[C@@H](CO)C(N)=O)[C@@H](C)CC)[C@@H](C)CC [Example 364]
- Emax (hGIPR; HEK293, cAMP, 37° C., 0.1% bovine casein and 1.0% human serum albumin, percent of maximal response to GIP(1-42)NH2, read-out: hGIPR Emax, % ± SEM): 89.1%
- EC50 (hGIPR; cAMP, 37° C., 0.1% bovine casein (no human serum albumin), read-out: hGIPR EC50, nM (SEM, n)): 0.0111 nM
- EC50 (hGCGR; cAMP, 37° C., 0.1% bovine casein (no human serum albumin), geometric mean, read-out: hGCGR EC50, nM (SEM, n)): > 9950 nM
- EC50 (hGCGR; cAMP, 37° C., 0.1% bovine casein and 1.0% human serum albumin, geometric mean (SEM, n), read-out: hGCGR EC50, nM (SEM, n)): > 9950 nM
- EC50 (hGLP-1R; cAMP, 37° C., 0.1% bovine casein (no human serum albumin), geometric mean, read-out: hGLP-1R EC50, nM (SEM, n)): 0.347 nM
- EC50 (hGLP-1R; cAMP, 37° C., 0.1% bovine casein and 1.0% human serum albumin, geometric mean (SEM, n), read-out: hGLP-1R EC50, nM (SEM, n)): 13 nM

SMILES: CC[C@H](C)[C@H](NC(=O)[C@H](CCCN)NC(=O)[C@H](CC(=O)O)NC(=O)[C@H](CC(C)C)NC(=O)[C@](C)(CC(C)C)NC(=O)[C@@H](NC(=O)[C@H](CO)NC(=O)[C@H](Cc1ccncc1)NC(=O)[C@H](CC(=O)O)NC(=O)[C@H](CO)NC(=O)[C@@H](NC(=O)[C@](C)(Cc1ccccc1F)NC(=O)[C@@H](NC(=O)CNC(=O)[C@H](CCC(=O)O)NC(=O)C(C)(C)NC(=O)[C@@H](N)Cc1ccc(O)cc1)[C@@H](C)O)[C@@H](C)O)[C@@H](C)CC)C(=O)N[C@@H](C)C(=O)N[C@@H](CCC(N)=O)C(=O)NC(C)(C)C(=O)N[C@@H](CCCCNC(=O)COCCOCCNC(=O)COCCOCCNC(=O)CCCCCCCCCCCCC(=O)O)C(=O)N[C@@H](Cc1ccccc1)C(=O)N[C@H](C(=O)N[C@@H](CCCCNC(=O)COCCOCCNC(=O)COCCOCCNC(=O)CCCCCCCCCCCCC(=O)O)C(=O)N[C@@](C)(Cc1ccc(O)cc1)C(=O)N[C@@H](CC(C)C)C(=O)N[C@H](C(=O)N[C@@H](CCC(=O)O)C(=O)NCC(=O)NCC(=O)N1CCC[C@H]1C(=O)N[C@@H](CO)C(=O)N[C@@H](CO)C(=O)NCC(=O)N[C@@H](C)C(=O)N1CCC[C@H]1C(=O)N1CCC[C@H]1C(=O)N1CCC[C@H]1C(=O)N[C@@H](CO)C(N)=O)[C@@H](C)CC)[C@@H](C)CC [Example 191]
- Emax (hGIPR; HEK293, read-out: hGIPR Emax, % ± SEM, 0.1% bovine casein and 1.0% human serum albumin, 37° C., percent of maximal response to GIP(1-42)NH2): 86.2 ± 5.5%
- Emax (hGIPR; HEK293, read-out: hGIPR Emax, % ± SEM, percent of maximal response to GIP(1-42)NH2, 37° C., 0.1% bovine casein, arithmetic mean): 90 ± 3.29%
- EC50 (hGIPR; hGIPR EC50, nM (SEM, n), 0.1% bovine casein and 1.0% human serum albumin, 37° C.): 0.866 nM
- EC50 (hGCGR; hGCGR EC50, nM (SEM, n), 0.1% bovine casein and 1.0% human serum albumin, 37° C., geometric mean): > 9950 nM
- EC50 (hGCGR; hGCGR EC50, nM (SEM, n), cAMP, incubated at 37° C., 0.1% bovine casein (no human serum albumin), geometric mean): > 9950 nM
- Emax (hGLP-1R; HEK293, read-out: hGLP-1R Emax, % ± SEM, 0.1% bovine casein and 1.0% human serum albumin, 37° C., percent of maximal response to GLP-1(7-36)NH2): 105 ± 7.98%
- EC50 (hGLP-1R; hGLP-1R EC50, nM (SEM, n), 0.1% bovine casein and 1.0% human serum albumin, 37° C., geometric mean): 13.1 nM

SMILES: CC[C@H](C)[C@H](NC(=O)[C@H](CCCN)NC(=O)[C@H](CC(=O)O)NC(=O)[C@H](CC(C)C)NC(=O)[C@](C)(CC(C)C)NC(=O)[C@@H](NC(=O)[C@H](CO)NC(=O)[C@H](CCCCNC(=O)COCCOCCNC(=O)COCCOCCNC(=O)CC[C@H](NC(=O)CCCCCCCCCCCCC(=O)O)C(=O)O)NC(=O)[C@H](CC(=O)O)NC(=O)[C@H](CO)NC(=O)[C@@H](NC(=O)[C@](C)(Cc1ccccc1F)NC(=O)[C@@H](NC(=O)CNC(=O)[C@H](CCC(=O)O)NC(=O)C(C)(C)NC(=O)[C@@H](N)Cc1ccc(O)cc1)[C@@H](C)O)[C@@H](C)O)[C@@H](C)CC)C(=O)N[C@@H](C)C(=O)N[C@@H](CCC(N)=O)C(=O)NC(C)(C)C(=O)N[C@@H](CCC(=O)O)C(=O)N[C@@H](Cc1ccccc1)C(=O)N[C@H](C(=O)N[C@H](CCC(=O)O)C(=O)N[C@@](C)(Cc1ccc(O)cc1)C(=O)N[C@@H](CC(C)C)C(=O)N[C@H](C(=O)N[C@@H](CCCCNC(=O)COCCOCCNC(=O)COCCOCCNC(=O)CC[C@H](NC(=O)CCCCCCCCCCCCC(=O)O)C(=O)O)C(=O)NCC(=O)NCC(=O)N1CCC[C@H]1C(=O)N[C@@H](CO)C(=O)N[C@@H](CO)C(=O)NCC(=O)N[C@@H](C)C(=O)N1CCC[C@H]1C(=O)N1CCC[C@H]1C(=O)N1CCC[C@H]1C(=O)N[C@@H](CO)C(N)=O)[C@@H](C)CC)[C@@H](C)CC [Example 107] (H-Y[Aib]EGT[αMePhe(2-F)]TSDK([AEEA-AEEA-γGlu-C14 diacid])SI[αMeL]LD[Orn]IAQ[Aib]EFI[dE][αMeY]LIK([AEEA-AEEA-γGlu-C14 diacid])GGPSSGAPPPS-NH2)
- Emax (hGIPR; [1]): 94.3%
- EC50 (hGIPR; [2]): 0.0473 nM
- EC50 (hGCGR; [3]): > 9950 nM
- Emax (hGLP-1R; HEK293, percent of maximal response to GLP-1(7-36)NH2, 37° C., 0.1% bovine casein, arithmetic mean, read-out: hGLP-1R Emax, % ± SEM): 93.4%

SMILES: CC[C@H](C)[C@H](NC(=O)[C@H](CCCN)NC(=O)[C@H](CC(=O)O)NC(=O)[C@H](CC(C)C)NC(=O)[C@](C)(CC(C)C)NC(=O)[C@@H](NC(=O)[C@H](CO)NC(=O)[C@H](Cc1ccncc1)NC(=O)[C@H](CC(=O)O)NC(=O)[C@H](CO)NC(=O)[C@@H](NC(=O)[C@](C)(Cc1ccccc1F)NC(=O)[C@@H](NC(=O)CNC(=O)[C@H](CCC(=O)O)NC(=O)C(C)(C)NC(=O)[C@@H](N)Cc1ccc(O)cc1)[C@@H](C)O)[C@@H](C)O)[C@@H](C)CC)C(=O)N[C@@H](C)C(=O)N[C@@H](CCC(N)=O)C(=O)NC(C)(C)C(=O)N[C@@H](CCCCNC(=O)COCCOCCNC(=O)COCCOCCNC(=O)CC[C@H](NC(=O)CCCCCCCCCCCCC(=O)O)C(=O)O)C(=O)N[C@@H](Cc1ccccc1)C(=O)N[C@H](C(=O)N[C@H](CCC(=O)O)C(=O)N[C@@](C)(Cc1ccc(O)cc1)C(=O)N[C@@H](CC(C)C)C(=O)N[C@H](C(=O)N[C@@H](CCC(=O)O)C(=O)NCC(=O)NCC(=O)N1CCC[C@H]1C(=O)N[C@@H](CO)C(=O)N[C@@H](CO)C(=O)NCC(=O)N[C@@H](C)C(=O)N1CCC[C@H]1C(=O)N1CCC[C@H]1C(=O)N1CCC[C@H]1C(=O)N[C@@H](CO)C(=O)N[C@@H](CCCCNC(=O)COCCOCCNC(=O)COCCOCCNC(=O)CC[C@H](NC(=O)CCCCCCCCCCCCC(=O)O)C(=O)O)C(N)=O)[C@@H](C)CC)[C@@H](C)CC [Example 75]
- EC50 (hGIPR; 0.1% bovine casein and 1.0% human serum albumin, 37° C., read-out: hGIPR EC50, nM (SEM, n)): 2.18 nM
- Emax (hGIPR; HEK293, 0.1% bovine casein and 1.0% human serum albumin, 37° C., percent of maximal response to GIP(1-42)NH2, read-out: hGIPR Emax, % ± SEM): 87.8 ± 3.33%
- Emax (hGIPR; [1]): 92.3 ± 0.78%
- EC50 (hGIPR; [2]): 0.0182 nM
- EC50 (hGCGR; 0.1% bovine casein and 1.0% human serum albumin, 37° C., geometric mean, read-out: hGCGR EC50, nM (SEM, n)): > 9950 nM
- EC50 (hGCGR; [3]): > 9950 nM
- EC50 (hGLP-1R; 0.1% bovine casein and 1.0% human serum albumin, 37° C., geometric mean, read-out: hGLP-1R EC50, nM (SEM, n)): 41.3 nM
- Emax (hGLP-1R; HEK293, 0.1% bovine casein and 1.0% human serum albumin, 37° C., percent of maximal response to GLP-1(7-36)NH2, read-out: hGLP-1R Emax, % ± SEM): 97 ± 8.3%
- EC50 (hGLP-1R; cAMP, incubated at 37° C., 0.1% bovine casein (no human serum albumin), geometric mean, read-out: hGLP-1R EC50, nM (SEM, n)): 0.411 nM
